Here are results for 1 compound from ChEMBL document CHEMBL1142497, “Emerging protein targets for anticancer metallodrugs: inhibition of thioredoxin reductase and cathepsin B by antitumor ruthenium(II)-arene compounds” (J Med Chem, 2008).

Molecules are shown by their SMILES. Some results are limits rather than exact numbers.

The target in test [1] is T1, Thioredoxin reductase 1, cytoplasmic (Rattus norvegicus, UniProt O89049).
T1 sequence (O89049 whole entry): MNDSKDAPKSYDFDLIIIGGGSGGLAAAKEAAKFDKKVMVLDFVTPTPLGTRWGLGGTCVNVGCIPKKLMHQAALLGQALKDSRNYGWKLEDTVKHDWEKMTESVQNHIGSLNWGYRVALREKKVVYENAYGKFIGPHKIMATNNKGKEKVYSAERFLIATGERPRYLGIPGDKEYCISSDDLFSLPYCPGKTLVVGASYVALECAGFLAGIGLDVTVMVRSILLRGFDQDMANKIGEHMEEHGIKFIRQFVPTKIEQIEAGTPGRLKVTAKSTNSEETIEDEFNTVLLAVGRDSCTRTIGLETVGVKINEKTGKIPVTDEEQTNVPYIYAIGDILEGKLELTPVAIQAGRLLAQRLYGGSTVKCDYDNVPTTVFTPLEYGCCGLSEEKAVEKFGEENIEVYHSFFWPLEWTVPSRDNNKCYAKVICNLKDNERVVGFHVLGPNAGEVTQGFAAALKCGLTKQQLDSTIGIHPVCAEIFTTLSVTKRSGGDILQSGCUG

Test [2] deals with Thioredoxin reductase 2, mitochondrial (Rattus norvegicus, UniProt Q9Z0J5).
Sequence of Thioredoxin reductase 2, mitochondrial (Q9Z0J5 whole entry): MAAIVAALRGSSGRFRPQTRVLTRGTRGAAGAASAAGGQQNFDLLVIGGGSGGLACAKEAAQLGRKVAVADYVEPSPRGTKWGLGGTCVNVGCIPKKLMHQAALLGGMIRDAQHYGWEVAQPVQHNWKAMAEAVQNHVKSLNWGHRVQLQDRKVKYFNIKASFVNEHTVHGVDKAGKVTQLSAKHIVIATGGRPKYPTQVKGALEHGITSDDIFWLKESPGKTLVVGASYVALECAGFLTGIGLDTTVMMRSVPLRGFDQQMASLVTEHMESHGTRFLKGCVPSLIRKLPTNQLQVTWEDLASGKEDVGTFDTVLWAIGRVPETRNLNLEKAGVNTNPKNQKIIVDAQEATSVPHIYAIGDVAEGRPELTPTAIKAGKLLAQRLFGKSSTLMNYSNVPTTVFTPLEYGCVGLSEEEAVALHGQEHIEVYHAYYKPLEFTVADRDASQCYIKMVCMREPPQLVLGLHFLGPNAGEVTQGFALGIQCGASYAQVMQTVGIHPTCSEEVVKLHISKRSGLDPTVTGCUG

As to `O=C(O)C1(C(=O)O)CCC1`, the half-maximal inhibitory concentration (IC50) in test [1] and in test [2] was over 200 µM each time.

What is called IC50 is the concentration at which inhibition is half-maximal.
